Results published in ChEMBL document CHEMBL1681705, “Optimisation of ITK inhibitors through successive iterative design cycles” (Bioorg Med Chem Lett, 2011).

Key:
[1] = target: T1, Tyrosine-protein kinase ITK/TSK (Homo sapiens, UniProt Q08881); assay: Inhibition of recombinant GST-tagged full-length ITK expressed in baculovirus expression system after 30 mins by scintillation proximity assay
T1 sequence (Q08881 whole entry): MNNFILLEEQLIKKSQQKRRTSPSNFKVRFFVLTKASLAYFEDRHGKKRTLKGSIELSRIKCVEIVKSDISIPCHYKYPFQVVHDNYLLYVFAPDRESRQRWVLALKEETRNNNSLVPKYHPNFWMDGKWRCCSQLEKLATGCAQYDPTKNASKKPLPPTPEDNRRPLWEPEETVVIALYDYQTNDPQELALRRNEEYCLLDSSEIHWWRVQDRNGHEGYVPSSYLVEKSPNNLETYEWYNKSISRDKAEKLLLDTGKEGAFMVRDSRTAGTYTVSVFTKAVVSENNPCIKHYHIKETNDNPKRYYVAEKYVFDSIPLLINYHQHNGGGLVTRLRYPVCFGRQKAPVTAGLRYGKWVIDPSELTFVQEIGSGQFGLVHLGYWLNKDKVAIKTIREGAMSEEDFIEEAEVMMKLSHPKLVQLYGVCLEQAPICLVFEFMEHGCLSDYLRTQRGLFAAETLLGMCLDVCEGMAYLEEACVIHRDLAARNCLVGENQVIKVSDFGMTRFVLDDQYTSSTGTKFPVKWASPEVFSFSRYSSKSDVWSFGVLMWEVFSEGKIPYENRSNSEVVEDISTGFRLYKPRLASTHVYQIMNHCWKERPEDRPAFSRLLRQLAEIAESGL

[2] = target: Ribosomal protein S6 kinase alpha-1 (Homo sapiens) (UniProt Q15418); assay: Inhibition of Rsk1 at 1 uM
Chain of Ribosomal protein S6 kinase alpha-1 (Homo sapiens) (Q15418 whole entry): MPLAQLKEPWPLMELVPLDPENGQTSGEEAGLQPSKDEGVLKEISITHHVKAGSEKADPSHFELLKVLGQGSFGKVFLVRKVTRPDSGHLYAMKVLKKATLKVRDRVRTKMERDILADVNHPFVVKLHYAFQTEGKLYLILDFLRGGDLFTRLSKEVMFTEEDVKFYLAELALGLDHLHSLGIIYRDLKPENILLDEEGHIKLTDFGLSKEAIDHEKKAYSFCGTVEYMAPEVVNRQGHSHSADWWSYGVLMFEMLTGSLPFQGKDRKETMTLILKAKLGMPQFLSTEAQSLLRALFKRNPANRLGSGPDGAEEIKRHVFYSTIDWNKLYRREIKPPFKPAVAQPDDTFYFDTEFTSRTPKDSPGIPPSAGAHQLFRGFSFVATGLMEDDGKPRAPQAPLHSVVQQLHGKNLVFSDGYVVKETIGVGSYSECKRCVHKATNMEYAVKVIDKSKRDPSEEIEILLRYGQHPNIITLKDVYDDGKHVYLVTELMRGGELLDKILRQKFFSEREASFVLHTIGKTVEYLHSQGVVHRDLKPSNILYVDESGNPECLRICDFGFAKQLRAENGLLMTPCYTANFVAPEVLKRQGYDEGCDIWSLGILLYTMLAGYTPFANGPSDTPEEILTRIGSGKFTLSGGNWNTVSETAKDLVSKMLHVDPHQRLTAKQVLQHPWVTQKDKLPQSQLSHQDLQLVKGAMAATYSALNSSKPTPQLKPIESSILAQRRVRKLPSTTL

[3] = target: T2, Serine/threonine-protein kinase STK11 (Homo sapiens) (UniProt Q15831); assay: Inhibition of LKB1 at 1 uM; values are per cent of control
T2 sequence (whole entry): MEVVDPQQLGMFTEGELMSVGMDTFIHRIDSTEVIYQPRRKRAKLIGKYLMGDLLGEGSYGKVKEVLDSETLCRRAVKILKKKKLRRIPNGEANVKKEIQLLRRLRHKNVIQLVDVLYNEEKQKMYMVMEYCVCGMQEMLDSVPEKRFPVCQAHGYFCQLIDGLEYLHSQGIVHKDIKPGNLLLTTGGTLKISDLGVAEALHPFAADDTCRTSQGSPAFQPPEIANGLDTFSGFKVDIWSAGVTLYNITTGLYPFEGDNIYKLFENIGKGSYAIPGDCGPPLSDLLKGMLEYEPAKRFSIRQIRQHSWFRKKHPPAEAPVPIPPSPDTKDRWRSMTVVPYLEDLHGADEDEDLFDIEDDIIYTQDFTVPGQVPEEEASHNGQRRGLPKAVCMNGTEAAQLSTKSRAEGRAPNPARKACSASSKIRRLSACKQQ

[4] = target: Protein-tyrosine kinase 2-beta (Homo sapiens) (UniProt Q14289); assay: Inhibition of Pyk2 at 1 uM; values are per cent of control
Chain of Protein-tyrosine kinase 2-beta (Homo sapiens) (Q14289 whole entry, looked up): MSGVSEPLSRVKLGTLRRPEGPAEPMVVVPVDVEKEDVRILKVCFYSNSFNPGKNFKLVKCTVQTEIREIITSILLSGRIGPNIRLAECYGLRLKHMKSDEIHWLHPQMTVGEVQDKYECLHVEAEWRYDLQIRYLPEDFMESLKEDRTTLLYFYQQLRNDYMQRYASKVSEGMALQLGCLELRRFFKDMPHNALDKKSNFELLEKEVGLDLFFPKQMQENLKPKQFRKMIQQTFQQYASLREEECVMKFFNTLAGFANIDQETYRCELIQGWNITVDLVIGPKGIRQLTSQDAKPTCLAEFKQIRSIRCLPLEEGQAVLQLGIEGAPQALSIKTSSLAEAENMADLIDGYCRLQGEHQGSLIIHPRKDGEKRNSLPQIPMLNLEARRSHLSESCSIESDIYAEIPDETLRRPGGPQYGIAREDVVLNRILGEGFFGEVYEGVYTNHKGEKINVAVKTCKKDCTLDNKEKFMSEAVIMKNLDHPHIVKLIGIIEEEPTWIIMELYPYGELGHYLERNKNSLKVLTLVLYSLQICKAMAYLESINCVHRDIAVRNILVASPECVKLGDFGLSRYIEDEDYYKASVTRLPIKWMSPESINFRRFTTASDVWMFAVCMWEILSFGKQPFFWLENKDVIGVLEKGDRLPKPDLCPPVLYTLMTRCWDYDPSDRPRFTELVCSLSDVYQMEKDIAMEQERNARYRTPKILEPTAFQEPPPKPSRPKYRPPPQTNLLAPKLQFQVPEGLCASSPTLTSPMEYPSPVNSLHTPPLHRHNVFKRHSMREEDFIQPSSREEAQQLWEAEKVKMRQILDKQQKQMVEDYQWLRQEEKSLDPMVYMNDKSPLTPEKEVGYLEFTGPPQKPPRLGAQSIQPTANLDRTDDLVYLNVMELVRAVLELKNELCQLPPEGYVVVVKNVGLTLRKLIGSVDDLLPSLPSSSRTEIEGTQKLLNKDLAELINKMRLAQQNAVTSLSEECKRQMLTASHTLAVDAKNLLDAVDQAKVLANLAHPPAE

[5] = target: Tyrosine-protein kinase SYK (Homo sapiens) (UniProt P43405); assay: Inhibition of Syk at 0.1 uM; values are per cent of control
[6] = target: Ribosomal protein S6 kinase alpha-1 (Homo sapiens) (UniProt Q15418); assay: Inhibition of Rsk1 at 0.1 uM; values are per cent of control
[7] = target: Mast/stem cell growth factor receptor Kit (Homo sapiens) (UniProt P10721); assay: Inhibition of c-Kit at 0.1 uM; values are per cent of control
Chain of Mast/stem cell growth factor receptor Kit (Homo sapiens) (P10721 whole entry): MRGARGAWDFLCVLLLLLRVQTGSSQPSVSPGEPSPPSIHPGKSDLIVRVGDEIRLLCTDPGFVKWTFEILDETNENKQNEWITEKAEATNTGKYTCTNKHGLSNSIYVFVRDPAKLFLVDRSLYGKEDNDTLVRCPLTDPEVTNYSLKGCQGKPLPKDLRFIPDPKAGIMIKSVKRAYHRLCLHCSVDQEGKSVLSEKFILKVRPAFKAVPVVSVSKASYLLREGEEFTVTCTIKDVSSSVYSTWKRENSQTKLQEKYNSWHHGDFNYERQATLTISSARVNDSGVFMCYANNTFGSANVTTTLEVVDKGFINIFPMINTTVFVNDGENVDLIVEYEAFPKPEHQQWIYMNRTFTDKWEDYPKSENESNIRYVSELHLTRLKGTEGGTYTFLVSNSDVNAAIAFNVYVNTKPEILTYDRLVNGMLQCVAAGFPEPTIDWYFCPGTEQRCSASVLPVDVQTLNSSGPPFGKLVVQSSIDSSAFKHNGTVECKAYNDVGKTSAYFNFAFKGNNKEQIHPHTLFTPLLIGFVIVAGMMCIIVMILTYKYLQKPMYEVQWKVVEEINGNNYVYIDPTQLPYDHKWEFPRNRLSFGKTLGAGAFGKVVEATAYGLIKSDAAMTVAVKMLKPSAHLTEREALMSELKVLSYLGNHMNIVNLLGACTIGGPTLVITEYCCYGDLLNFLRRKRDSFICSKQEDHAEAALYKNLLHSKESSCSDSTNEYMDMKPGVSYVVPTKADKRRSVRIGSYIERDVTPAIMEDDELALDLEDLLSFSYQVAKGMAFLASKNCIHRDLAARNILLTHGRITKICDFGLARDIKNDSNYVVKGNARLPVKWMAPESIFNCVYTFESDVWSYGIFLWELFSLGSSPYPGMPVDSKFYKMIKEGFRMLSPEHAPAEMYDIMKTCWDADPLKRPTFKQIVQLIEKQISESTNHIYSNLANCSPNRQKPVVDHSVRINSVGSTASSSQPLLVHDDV

[8] = target: T3, Ephrin type-A receptor 8 (Homo sapiens) (UniProt P29322); assay: Inhibition of EphA8 at 0.1 uM; values are per cent of control
T3 sequence (whole entry): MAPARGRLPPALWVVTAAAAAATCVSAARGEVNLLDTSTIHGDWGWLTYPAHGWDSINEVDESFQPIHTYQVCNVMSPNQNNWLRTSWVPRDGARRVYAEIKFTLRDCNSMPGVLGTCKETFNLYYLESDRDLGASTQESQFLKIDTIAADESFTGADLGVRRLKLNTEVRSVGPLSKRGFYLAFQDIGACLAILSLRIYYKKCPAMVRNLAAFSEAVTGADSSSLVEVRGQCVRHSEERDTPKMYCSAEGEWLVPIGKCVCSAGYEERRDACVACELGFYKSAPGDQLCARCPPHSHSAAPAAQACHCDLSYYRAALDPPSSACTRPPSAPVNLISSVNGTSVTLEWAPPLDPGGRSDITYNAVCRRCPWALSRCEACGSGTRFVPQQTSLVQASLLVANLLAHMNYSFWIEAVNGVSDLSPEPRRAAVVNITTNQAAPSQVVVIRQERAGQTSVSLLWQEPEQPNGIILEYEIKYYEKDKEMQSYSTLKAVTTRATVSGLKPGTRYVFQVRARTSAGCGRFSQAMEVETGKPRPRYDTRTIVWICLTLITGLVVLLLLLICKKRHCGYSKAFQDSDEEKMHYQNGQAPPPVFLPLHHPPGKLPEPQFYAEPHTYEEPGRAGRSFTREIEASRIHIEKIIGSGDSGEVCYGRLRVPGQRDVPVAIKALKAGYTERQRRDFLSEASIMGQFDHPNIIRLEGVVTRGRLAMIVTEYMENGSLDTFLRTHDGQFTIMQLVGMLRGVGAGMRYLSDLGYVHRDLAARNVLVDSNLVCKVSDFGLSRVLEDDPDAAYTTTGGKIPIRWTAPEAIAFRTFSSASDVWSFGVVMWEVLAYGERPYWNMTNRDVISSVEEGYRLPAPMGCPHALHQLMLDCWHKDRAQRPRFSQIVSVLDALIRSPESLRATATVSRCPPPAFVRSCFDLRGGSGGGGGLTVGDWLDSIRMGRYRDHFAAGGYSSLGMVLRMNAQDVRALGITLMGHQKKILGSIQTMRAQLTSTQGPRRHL

Row | IC50 [1] [nM] | inhibition [2] [%] | residual activity [3] [%] | residual activity [4] [%] | residual activity [5] [%] | residual activity [6] [%] | residual activity [7] [%] | residual activity [8] [%] | Structure (SMILES)
1 | 23 | 1 | 101 | 10 | 0 | 97 | 143 | 92 | Cc1ccc2cc(-c3n[nH]c4ccc(NC5CCN(Cc6ccccc6)CC5)cc34)[nH]c2c1
2 | 11 | -1 | 98 | 8 | 2 | 6 | 92 | 97 | Cc1ccc2cc(-c3n[nH]c4ccc(NC5CCNC5)cc34)[nH]c2c1 (stereo unspecified)
